Laboratory results from patent US20120329798A1, “METHODS AND COMPOSITIONS FOR TREATING LUEKEMIA” (priority 2009, published 2012).
Where a name gives a salt, the structure may show the parent alone.

How the values were obtained:
[1] = tested on: primary CD34+ CP CML cells; assay: Colony forming assay and serial re-plating of primary CML cells; format: cell-based, human; conditions: for proliferation index (PI) of re-plated colonies (AUC): 3d nilotinib and/or compound A exposure, 132 colonies per arm, compared to untreated cells, FIG. 7
Description: Primary cells were obtained from newly diagnosed and untreated patients with CML in chronic phase. These cells were enriched for CD34+using magnetic-activated cell sorting prior to cryopreservation in 10% DMSO and 4% human albumin solution in liquid nitrogen. Samples were thawed and washed in a solution of DNAse, human albumin solution, magnesium chloride, and phosphate buffered saline. Upon thaw primary cells were cultured in a serum free medium comprising of Iscove's Modified Dulbecco Medium with bovine serum albumin, insulin, transferring, P2 mercaptoethanol and growth factors (100 ng/mL Flt3-ligand, 100 ng/mL stem cell factor, 20 ng/mL interleukin (IL)-3, IL-6 and 50 ng/mL granulocyte-colony stimulating factor) for 24 hours.
Viable cells were enumerated using trypan blue dye exclusion and set up in culture in serum free medium (SFM) with the stated concentrations of Compound A and/or nilotinib. Following 72 hours (h) culture the cells were washed twice in phosphate buffered solution (PBS) and viable cells counted, again by trypan blue exclusion. These cells were then used for a series of colony forming and re-plating assays.
In the colony forming assay (CFA) a single cell suspension is created in semisolid media with appropriate cytokines. This enables the assessment of colony formation from each individual cell. In order to measure the effect of compound A and/or nilotinib on the relative abundance of CD34+ CP CML progenitor cells, CFA were set up in METHOCULT with cells plated at an initial concentration of 4000 cells per mL in duplicate. Colonies were identified and enumerated 14-16 days (d) following plating.
An accepted in vitro technique to approximate self-renewal activity is serial re-plating. Colonies derived from a CFA are individually plucked and re-dispersed in further METHOCULT. The capacity to reform colonies following re-dispersion is related to the number of primitive progenitors remaining within each individual colony and is therefore an indirect measurement of self-renewal. Following CFA 20-30 individual non-erythroid colonies from each experimental arm were then plucked with a p10 pipettor (one tip per colony using an inverted microscope) and carefully dispersed into 100 μL METHOCULT with a further 10 μL SFM in 96 well plates prior to incubation for a further 7d. Resultant secondary colonies were enumerated in each well and; in the case of wells containing secondary colonies; the entire contents were re-dispersed in a further 100 μL METHOCULT to assess tertiary colony formation.
Colony assays were performed in METHOCULT with cells plated at an initial concentration of 4000 cells per mL in duplicate. Colonies were identified and enumerated 14-16 days (d) following plating. […]

[2] = tested on: mouse bone marrow cells infected with Bcr-abl retrovirus; assay: Methylcellulose colony formation and re-plating of Bcr-Abl infected bone marrow cells; format: cell-based; conditions: 72 h pre-treatment; for colony formation in the first methylcellulose plating: compared to control DMSO group, FIG. 8
Excerpt: Colony formation was scored 10 days after plating.
FIG. 9. Colonies obtained in the 1st plating experiment of FIG. 8 were resuspended and washed in PBS containing 10% FCS. Cells were resuspended in OPTI-MEM media and plated in methylcellulose at a concentration of 5000 cells per 35 mm plate. Colony formation was scored 10 days after plating.
Mouse bone marrow cells were infected with a bicistronic retroviral Bcr-Abl vector (Bcr-Abl-IRES-GFP). […] Clonogenic colony formation assays assess the self-renewal capacity of early progenitor/stem cells.

[3] = tested on: bone marrow transplant model of Bcr-Abl to induce CML in mice; assay: Bone marrow transplant model of Bcr-Abl induced CML, survival; format: in vivo, mouse; conditions: groups of 8 mice; two week treatment; compound A 80 mg/kg po qd, AMN107 75 mg/kg po qd or combination; FIG. 10
Description: A bone marrow transplant model of Bcr-Abl was used to induce CML in mice. Briefly, a bicistronic retroviral Bcr-Abl vector (Bcr-Abl-IRES-GFP) was used to produce virus to infect progenitor bone marrow (BM) cells collected from mice previously treated with 5-FU. After 3 rounds of infection, 200,000 GFP positive progenitor BM cells were transplanted into lethally irradiated hosts. Two weeks post-BMT, peripheral blood samples were analyzed by FACS analysis to establish the percentage of GFP positive cells present in the recipient mice. […] During the entire study period the mice were followed for any sign of leukemia development, such as hunched position, lost of body weight or inability of grooming. The animals were sacrificed when they reached any of the previously described signs.

[4] = tested on: CML; conditions: standard of therapy for CML; cited from earlier work

Structure (SMILES) | re-plating capacity (total number of secondary colonies) ([1]; 3d exposure, Compound A 10 nM and/or nilotinib 5 μM, 4 experiments, FIG. 6) | proliferation index (PI) of re-plated colonies (AUC) ([1]; 4 experiments) | colony formation in the first methylcellulose plating [2] | number of animals sacrificed to date [3] | re-plating capacity (total secondary and tertiary colonies as percentage of untreated control) ([1]; 72 h culture with drug, first and second re-plate, FIG. 1 and 2) | colony number upon secondary re-plating of the colonies ([2]; FIG. 9) | response rates [4]
Cc1cn(-c2cc(NC(=O)c3ccc(C)c(Nc4nccc(-c5cccnc5)n4)c3)cc(C(F)(F)F)c2)cn1 [nilotinib] | non-significant increase in re-plating capacity | relative increase in PI | No reduction of colony formation | 5 | – | – | –
Cc1c(C(=O)Nc2ccc(N3C[C@@H](C)O[C@@H](C)C3)nc2)cccc1-c1ccc(OC(F)(F)F)cc1 [Compound A, 2-Methyl-4′-trifluoromethoxy-biphenyl-3-carboxylic acid [6-(cis-2,6-dimethyl-morpholin-4-yl)-pyridin-3-yl]-amide] | – | reduction in PI | No reduction of colony formation | all | reduction in re-plating capacity | pronounced reduction in colony number | –
Cc1ccc(NC(=O)c2ccc(CN3CCN(C)CC3)cc2)cc1Nc1nccc(-c2cccnc2)n1 [Imatinib mesylate] | – | – | – | – | – | – | more than 96%
